{"source": "patent US10378046B2", "about": "“Method of targeting mismatched DNA using d8 square planar metal complexes” (The University of Hong Kong, priority 2015, dated 2019)", "assay_type_in_all_cases": "binding", "key": {"CC mismatched DNA [1]": {"system": "CC mismatched DNA", "assay": "Emission enhancement of complexes upon titration with CC mismatched DNA", "conditions": "complex 5 μM, DNA 10 μM; for ratio of emission enhancement by CC mismatched DNA to that by matched DNA (ΔIcc/ΔImat): aqueous buffer pH 7.5; for increase in emission intensity in the presence of CC mismatched DNA: aqueous buffer 50 mM NaCl, 2 mM Tris, pH 7.5", "procedure": "(§1) FIGS. 1A and 1B are graphs showing the emission spectra of complex 5 (5 μM) in an aqueous buffer solution (50 mM NaCl, 2 mM Tris, pH 7.5) after binding to different concentrations of CC mismatched DNA (left) and well-matched DNA (right).\n(§2) FIG. 4 is a graph showing the emission enhancement of different complexes (5 μM) towards CC mismatched DNA and matched DNA (10 μM). FIG. 5 is a graph showing the difference in emission enhancement between CC mismatched DNA and matched DNA by different complexes."}, "matched DNA [2]": {"system": "matched DNA", "assay": "Emission enhancement of complexes upon titration with well-matched DNA", "conditions": "complex 5 μM, DNA 10 μM; aqueous buffer 50 mM NaCl, 2 mM Tris, pH 7.5", "procedure": "as §1, §2\nUpon addition of CC mismatch DNA, a growth of the emission band was observed, and a 27-fold increase in emission intensity was found when the concentration of CC mismatched DNA was twice as much as that of the concentration of complex 5 (FIGS. 1A and 1B). It is noteworthy that the emission enhancement of complex 5 towards CC mismatched DNA was around 7-fold more than that toward matched DNA (FIG. 2)."}, "CC mismatched DNA [3]": {"system": "CC mismatched DNA", "assay": "Isothermal titration calorimetry with CC mismatched DNA", "conditions": "0.1 mM complex titrated by 0.75 mM DNA; 50 mM NaCl, 2 mM Tris, pH 7.5", "from_the_text": "ITC measures the heat absorbed or generated during a bi-molecular binding event. During ITC experiment of titrating known concentration of titrant (DNA molecules) to known quantity of titrate (Pt(II) complexes), Pt(II) complexes would bind onto the DNA molecules, generating incremental heat changes (in the unit of microcalories (μcal)). Through accurate measurement of the heat changes in each step of the titration and fitting the data by using a non-liner least square method, the best-fitted graph would yield the binding constant (K) of the bi-molecular interaction.\nTo determine the binding constant of Pt(II) complexes with CC mismatched DNA, 0.1 mM of Pt(II) complex in an aqueous buffer solution (50 mM NaCl, 2 mM Tris, pH 7.5) was titrated by 0.75 mM of DNA. Heat released from each step of titration had been recorded."}, "matched DNA [4]": {"system": "matched DNA", "assay": "Isothermal titration calorimetry with matched DNA", "conditions": "0.1 mM complex titrated by 0.75 mM DNA; 50 mM NaCl, 2 mM Tris, pH 7.5"}}, "data": [{"molecule": "OCCN1C=CN(Cc2ccccc2)[CH]1[Pt]12[c]3ccccc3-c3cccc([n+]31)-c1cccc[n+]12", "note": "(centres unmarked) [Complex 9]", "values": [{"measurement": "ratio of emission enhancement by CC mismatched DNA to that by matched DNA (ΔIcc/ΔImat)", "setting": "CC mismatched DNA [1]", "value": "smaller ratios of emission enhancement by CC mismatched DNA to the enhancement by matched DNA than complex 5"}, {"measurement": "increase in emission intensity in the presence of matched DNA", "setting": "matched DNA [2]", "value": "strong emission enhancement"}]}, {"molecule": "CN1C=CN(C)[CH]1[Pt]12[c]3ccccc3-c3cccc([n+]31)-c1cccc[n+]12", "note": "(centres unmarked) [Complex 1]", "values": [{"measurement": "difference in heat change between titration with CC mismatched DNA and matched DNA (ITC)", "setting": "CC mismatched DNA [3]", "value": "no distinguishable difference in heat change"}]}, {"molecule": "CCCCN1C=CN(Cc2ccccc2)[CH]1[Pt]12[c]3ccccc3-c3cccc([n+]31)-c1cccc[n+]12", "note": "(centres unmarked) [Complex 5]", "values": [{"measurement": "increase in emission intensity in the presence of CC mismatched DNA", "setting": "CC mismatched DNA [1]", "value": 27, "unit": "fold"}, {"measurement": "binding constant (K) with CC mismatched DNA by ITC", "setting": "CC mismatched DNA [3]", "value": "1.18×10^4"}, {"measurement": "heat change in the binding of matched DNA (ITC)", "setting": "matched DNA [4]", "value": "no significant heat change"}]}, {"molecule": "CCCCN1C=CN(Cc2ccc3ccccc3c2)[CH]1[Pt]12[c]3ccccc3-c3cccc([n+]31)-c1cccc[n+]12", "note": "(centres unmarked) [Complex 11]", "values": [{"measurement": "increase in emission intensity in the presence of CC mismatched DNA", "setting": "CC mismatched DNA [1]", "value": "no emission enhancement"}, {"measurement": "increase in emission intensity in the presence of matched DNA", "setting": "matched DNA [2]", "value": "no emission enhancement"}]}, {"molecule": "C1=CN(Cc2ccccc2)[CH]([Pt]23[c]4ccccc4-c4cccc([n+]42)-c2cccc[n+]23)N1Cc1ccccc1", "note": "(centres unmarked) [Complex 8]", "values": [{"measurement": "increase in emission intensity in the presence of CC mismatched DNA", "setting": "CC mismatched DNA [1]", "value": "small emission enhancements"}, {"measurement": "ratio of emission enhancement by CC mismatched DNA to that by matched DNA (ΔIcc/ΔImat)", "setting": "CC mismatched DNA [1]", "value": "smaller ratios of emission enhancement by CC mismatched DNA to the enhancement by matched DNA than complex 5"}, {"measurement": "increase in emission intensity in the presence of matched DNA", "setting": "matched DNA [2]", "value": "small emission enhancements"}]}, {"molecule": "CCCCN1C=CN(Cc2ccccc2)[CH]1[Pt]12[c]3ccccc3-c3cc(-c4ccccc4)cc([n+]31)-c1cccc[n+]12", "note": "(centres unmarked) [Complex 16]", "values": [{"measurement": "increase in emission intensity in the presence of CC mismatched DNA", "setting": "CC mismatched DNA [1]", "value": "no emission enhancement"}, {"measurement": "increase in emission intensity in the presence of matched DNA", "setting": "matched DNA [2]", "value": "no emission enhancement"}]}, {"molecule": "C1=CN(CN2C=CN(Cc3ccccc3)[CH]2[Pt]23[c]4ccccc4-c4cccc([n+]42)-c2cccc[n+]23)[CH]([Pt]23[c]4ccccc4-c4cccc([n+]42)-c2cccc[n+]23)N1Cc1ccccc1", "note": "(centres unmarked) [Complex 21]", "values": [{"measurement": "ratio of emission enhancement by CC mismatched DNA to that by matched DNA (ΔIcc/ΔImat)", "setting": "CC mismatched DNA [1]", "value": "largest ΔIcc/ΔImat value"}]}]}
